1 compound from publication PMC12822473, “A Novel FGFR3‐Targeting Antibody‐Drug Conjugate Induces Tumor Cell Apoptosis through the cGAS–STING Pathway in Bladder Cancer” (Advanced Science, 2025) can be followed below.

The target of this test is T1, MAD2L1 (T24 cells; MAD2L1WT and mutants reconstituted in MAD2L1‐KD T24 cells) (Homo sapiens, UniProt Q13257).
T1 construct: MAD2L1 in human T24 cells: native, or WT / mutants re-expressed by lentivirus in knockdown cells; Western blot read-out
The test can be described thus: streptavidin pull-down, Western blot and MS. Type of test: biochemical. The settings on record: labelled compound; T24 lysate, 4 °C; competed by excess unlabelled A2. In general terms: A western blot detects proteins with antibodies after separation by electrophoresis.

T1 sequence (Q13257 2-205, change not shown): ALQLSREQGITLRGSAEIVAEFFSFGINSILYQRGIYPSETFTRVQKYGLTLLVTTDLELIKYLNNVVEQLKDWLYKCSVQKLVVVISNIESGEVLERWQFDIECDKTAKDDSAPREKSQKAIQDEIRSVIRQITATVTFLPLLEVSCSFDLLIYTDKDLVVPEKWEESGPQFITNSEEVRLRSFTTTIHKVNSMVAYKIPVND

As to `CCc1c2c(nc3cccc(F)c13)-c1cc3c(c(=O)n1C2)COC(=O)[C@@]3(CC)OC(=O)CCCC[C@@H]1SC[C@@H]2NC(=O)N[C@@H]21` [A2‐biotin], the “streptavidin pull-down, Western blot and MS” value is on record as “pull‐down/Western blot analysis demonstrated that A2‐biotin directly binds to MAD2L1”.
